Measurements as given in ChEMBL document CHEMBL5252615, “Synthesis, biological activity and mechanism of action of novel allosecurinine derivatives as potential antitumor agents” (Bioorg Med Chem, 2023).
Calls of active or inactive are those of the source. The rule behind the calls is not given here.

How the values were obtained:
Assay type in all cases: functional, cell-based
THP-1 [1] = test: Antitumor activity against human THP-1 cells assessed as reduction in cell viability incubated for 72 hrs; details: THP-1, 72 h
U-937 [2] = test: Antitumor activity against human U-937 cells assessed as reduction in cell viability incubated for 72 hrs; details: U-937, 72 h
SU-DHL-2 = test: Antitumor activity against human SUDHL2 cells assessed as reduction in cell viability incubated for 72 hrs; details: SU-DHL-2, 72 h
SK-OV-3 [3] = test: Antitumor activity against human SK-OV-3 cells assessed as reduction in cell viability incubated for 72 hrs; details: SK-OV-3, 72 h
NB-4 [4] = test: Antitumor activity against human NB4 cells assessed as reduction in cell viability incubated for 72 hrs; details: NB-4, 72 h
HL-60 [5] = test: Antitumor activity against human HL-60 cells assessed as reduction in cell viability incubated for 72 hrs; details: HL-60, 72 h
KG-1 [6] = test: Antitumor activity against human KG-1 cells assessed as reduction in cell viability incubated for 72 hrs; details: KG-1, 72 h
K562 = test: Antitumor activity against human K562 cells assessed as reduction in cell viability incubated for 72 hrs; details: K562, 72 h
SK-OV-3 [7] = test: Antitumor activity against taxol-resistant human SK-OV-3 cells assessed as reduction in cell viability incubated for 72 hrs; details: SK-OV-3, 72 h
NB-4 [8] = test: Induction of differentiation of human NB4 cells assessed as increase in CD11b expression at 0.5 uM measured after 72 hrs by flow cytometric analysis
HL-60 [9] = test: Induction of differentiation of human HL-60 cells assessed as increase in CD11b expression at 0.5 uM measured after 72 hrs by flow cytometric analysis
THP-1 [10] = test: Induction of differentiation of human THP1 cells assessed as increase in CD11b expression at 0.5 uM measured after 72 hrs by flow cytometric analysis
KG-1 [11] = test: Induction of differentiation of human KG-1 cells assessed as increase in CD11b expression at 0.5 uM measured after 72 hrs by flow cytometric analysis
U-937 [12] = test: Induction of differentiation of human U-937 cells assessed as increase in CD11b expression at 0.5 uM measured after 72 hrs by flow cytometric analysis

IC50 (THP-1 [1]) [µM] | IC50 (U-937 [2]) [µM] | IC50 (SU-DHL-2) [µM] | IC50 (SK-OV-3 [3]) [µM] | IC50 (HL-60 [5]) [µM] | IC50 (K562) [µM] | IC50 (SK-OV-3 [7]) [µM] | SMILES | IC50 (NB-4 [4]) [µM] | IC50 (KG-1 [6]) [µM] | Activity (NB-4 [8]) | Activity (HL-60 [9]) | Activity (THP-1 [10]) | Activity (KG-1 [11]) | Activity (U-937 [12])
16.4 | 13.8 | 18 | 21 |  |  |  | O=C1O[C@@]23C[C@@H](C=CC2=C1C(O)c1nc2ccccc2s1)N1CCCC[C@H]13 (stereo not given in full) |  |  |  |  |  |  | 
12.4 | 16.6 | 15.3 | 6.84 | 15.2 | 17.3 | 8.32 | O=C1O[C@@]23C[C@@H](C=CC2=C1C(O)c1ccc(F)cc1)N1CCCC[C@H]13 (stereo not given in full) | 10.3 | 2.12 |  |  |  |  | 
10.7 | 8.05 | 16.1 | 10.2 | 9.2 | 3.7 | 9.91 | O=C1O[C@@]23CC(C=CC2=C1C(O)c1ccccc1[N+](=O)[O-])N1CCCC[C@H]13 (single isomer, unassigned) | 3.3 | 4.18 |  |  |  |  | 
14.8 | 7.56 | 18.3 | 9.94 | 11.8 | 4.47 | 11 | O=C1O[C@@]23C[C@@H](C=CC2=C1C(O)c1ccc(Cl)cc1)N1CCCC[C@H]13 (stereo not given in full) | 10.1 | 3.95 |  |  |  |  | 
25.9 | 27.3 | 20.8 | 11.6 | 17.2 | 17.7 | 12.5 | CS(=O)(=O)c1ccc(C(O)C2=C3C=C[C@@H]4C[C@@]3(OC2=O)[C@@H]2CCCCN42)cc1 (stereo not given in full) | 12.8 | 4.84 |  |  |  |  | 
12.7 | 11.1 | 19.4 | 7.58 | 11.5 | 8.35 | 8.42 | Cc1ccc(C(O)C2=C3C=C[C@@H]4C[C@@]3(OC2=O)[C@@H]2CCCCN42)cc1 (stereo not given in full) | 13.2 | 5.58 |  |  |  |  | 
12 | 8.73 | 16 | 3.42 | 8.73 | 4.45 | 6.52 | O=C1O[C@@]23C[C@@H](C=CC2=C1C(O)c1cccc(F)c1)N1CCCC[C@H]13 (stereo not given in full) | 4.01 | 3.98 |  |  |  |  | 
9.15 | 3.63 | 9.59 | 14.8 | 6.76 | 3.15 | 13.8 | O=C1O[C@@]23C[C@@H](C=CC2=C1C(O)c1ccc(-c2ccccc2)cc1)N1CCCC[C@H]13 (stereo not given in full) | 3.32 | 4.77 |  |  |  |  | 
15.5 | 4.38 | 20.7 | 7.76 | 3.52 | 1.68 | 5.59 | O=C1O[C@@]23C[C@@H](C=CC2=C1C(O)c1ccccc1Br)N1CCCC[C@H]13 (stereo not given in full) | 4.67 | 4.11 |  |  |  |  | 
16.1 | 1.79 | 20.1 | 6.68 | 9.98 | 6.02 | 7.61 | N#Cc1cccc(C(O)C2=C3C=C[C@@H]4C[C@@]3(OC2=O)[C@@H]2CCCCN42)c1 (stereo not given in full) | 7.7 | 1.95 |  |  |  |  | 
18 | 6.36 | 18.3 | 7.86 | 10.8 | 10.8 | 8.89 | O=C1O[C@@]23C[C@@H](C=CC2=C1C(O)c1ccc([N+](=O)[O-])cc1[N+](=O)[O-])N1CCCC[C@H]13 (stereo not given in full) | 12 | 3.08 |  |  |  |  | 
19.2 | 3.81 | 16.4 | 4.52 | 7.42 | 5.37 | 5.37 | O=C1O[C@@]23C[C@@H](C=CC2=C1C(O)c1ccccc1Cl)N1CCCC[C@H]13 (stereo not given in full) | 3.18 | 3.8 |  |  |  |  | 
12 | 4.64 | 9.28 | 3.11 | 6.2 | 2.69 | 3.5 | O=C1O[C@@]23C[C@@H](C=CC2=C1C(O)c1cccc([N+](=O)[O-])c1)N1CCCC[C@H]13 (stereo not given in full) | 3.01 | 1.98 | Active | Active | Active | Active | Active
15.5 | 10.8 | 15.2 | 14.2 | 9.92 | 2.58 | 12.5 | O=C1O[C@@]23C[C@@H](C=CC2=C1C(O)c1ccc(Br)cc1)N1CCCC[C@H]13 (stereo not given in full) | 6.18 | 2.27 |  |  |  |  | 
15.6 | 2.2 | 19.3 | 4.18 | 7.16 | 3.11 | 4.54 | N#Cc1ccc(C(O)C2=C3C=C[C@@H]4C[C@@]3(OC2=O)[C@@H]2CCCCN42)cc1 (stereo not given in full) | 3.84 | 2.57 |  |  |  |  | 
15.6 | 29.6 | 27.9 | 22.2 | 20.4 | 2.37 | 20.7 | O=C1O[C@@]23C[C@@H](C=CC2=C1C(O)c1csc2ccccc12)N1CCCC[C@H]13 (stereo not given in full) | 4.45 | 6.14 |  |  |  |  | 
15.8 | 6.99 | 15.3 | 14.7 | 7.66 | 10.3 | 14.9 | O=C1O[C@@]23C[C@@H](C=CC2=C1C(O)c1ccc(F)cc1F)N1CCCC[C@H]13 (stereo not given in full) | 5.8 | 2.21 |  |  |  |  | 
26.9 | 8.04 | 27.2 | 20.1 | 13.4 | 12.7 | 19.3 | Cc1ccccc1C(O)C1=C2C=C[C@@H]3C[C@@]2(OC1=O)[C@@H]1CCCCN31 (stereo not given in full) | 5.01 | 10 |  |  |  |  | 
16.1 | 16.7 | 20.9 | 14.9 | 16 | 20.1 | 17 | CC(C)(C)c1ccc(C(O)C2=C3C=C[C@@H]4C[C@@]3(OC2=O)[C@@H]2CCCCN42)cc1 (stereo not given in full) | 15.9 | 5.77 |  |  |  |  | 
6.16 | 3.68 | 12.1 | 13.5 | 4.17 | 6.06 | 14.8 | O=C1O[C@@]23C[C@@H](C=CC2=C1C(O)c1ccc(C(F)(F)F)cc1)N1CCCC[C@H]13 (stereo not given in full) | 1.99 | 1.83 |  |  |  |  | 
20.7 | 9.23 | 19 | 14.5 | 14.7 | 16.9 | 15.1 | O=C1O[C@@]23C[C@@H](C=CC2=C1C(O)c1ccccc1)N1CCCC[C@H]13 (stereo not given in full) | 13.3 | 9.12 |  |  |  |  | 
3.34 | 4.22 | 20.3 | 10.2 | 9.47 | 7.14 | 12.8 | O=C1O[C@@]23C[C@@H](C=CC2=C1C(O)c1ccccc1F)N1CCCC[C@H]13 (stereo not given in full) | 10.9 | 3.54 |  |  |  |  | 

SMILES | IC50 (THP-1 [1]) [µM] | IC50 (U-937 [2]) [µM] | IC50 (SU-DHL-2) [µM] | IC50 (SK-OV-3 [3]) [µM] | IC50 (HL-60 [5]) [µM] | IC50 (K562) [µM] | IC50 (SK-OV-3 [7]) [µM] | IC50 (NB-4 [4]) [µM] | IC50 (KG-1 [6]) [µM] | Activity (NB-4 [8]) | Activity (HL-60 [9]) | Activity (THP-1 [10]) | Activity (KG-1 [11]) | Activity (U-937 [12])
CC[C@@]1(O)C(=O)OCc2c1cc1n(c2=O)Cc2cc3ccccc3nc2-1 [CAMPTOTHECIN] | 1.89 | 1.81 | 0.94 |  | 0.91 | 0.58 | 4.86 | 2.01 | 2.31 |  |  |  |  | 
O=C1C=C2C=C[C@H]3C[C@@]2(O1)[C@@H]1CCCCN13 | > 50 | 14.9 | > 50 | 35.2 | 21.2 | 38.1 | 36.4 | 20.4 | > 50 |  |  |  |  | 
